Results from patent US11512053B2, “Arginine methyltransferase inhibitors and uses thereof” (priority 2013, dated 2022).
Where two headings read alike, the source gives them in different places.

What was measured:
[1] = target: full-length human PRMT6 (Flag- and His-tagged) (Homo sapiens, UniProt Q96LA8); assay: PRMT6 Biochemical Assay (3H-SAM Flashplate, peptide substrate)
From the text: General Materials. S-adenosylmethionine (SAM), S-adenosylhomocysteine (SAH), bicine, Tween20, dimethylsulfoxide (DMSO), bovine skin gelatin (BSG), sodium butyrate and Tris(2-carboxyethyl)phosphine hydrochloride solution (TCEP) were purchased from Sigma-Aldrich at the highest level of purity possible. ^3H-SAM was purchase from American Radiolabeled Chemicals with a specific activity of 80 Ci/mmol. 384-well streptavidin Flashplates were purchased from PerkinElmer.
Substrates. Peptide representative of human histone H4 residues 36-50 was synthesized with an N-terminal linker-affinity tag motif and a C-terminal amide cap by 21st Century Biochemicals. The peptide was purified by high-performance liquid chromatography (HPLC) to greater than 95% purity and confirmed by liquid chromatography mass spectrometry (LC-MS). The sequence was Biot-Ahx-[…]-amide and contained a monomethylated lysine at position 44 (SEQ ID NO.:5).
Molecular Biology: Full-length human PRMT6 (NM_018137.2) transcript clone was amplified from an HEK 293 cDNA library, incorporating a flanking 5′ sequence encoding a FLAG tag ([…]) (SEQ ID NO.:6) fused directly to Ser 2 of PRMT6 and a 3′ sequence encoding a hexa His sequence (HHHHHH) (SEQ ID NO.:17) fused directly to Asp 375. The amplified gene was subcloned into pFastBacMam (Viva Biotech).
Protein Expression. Recombinant baculovirus were generated according to Bac-to-Bac kit instructions (Life Technologies). […] Infections were carried out at 37° C. for 48 hours, harvested by centrifugation, and stored at −80° C. for purification.
Protein Purification. […] Column was washed with 20 mM imidazole in the same buffer and Flag-PRMT6-His was eluted with 150 mM imidazole. Pooled fractions were dialysed against buffer N^1-A and further purified by anti-flag M2 affinity chromatography. Flag-PRMT6-His was eluted with 200 ug/ml FLAG peptide in the same buffer. Pooled fractions were dialysed in 20 mM Tris, 150 mM NaCl, 10% glycerol and 5 mM β-mercaptoethanol, pH 7.8. The purity of recovered protein was 95%.
General Procedure for PRMT6 Enzyme Assays on Peptide Substrates. The assays were all performed in a buffer consisting of 20 mM Bicine (pH=7.6), 1 mM TCEP, 0.005% BSG, and 0.002% Tween 20, prepared on the day of use. Compounds in 100% DMSO (1 ul) were spotted into a polypropylene 384-well V-bottom plates (Greiner) using a Platemate Plus outfitted with a 384-channel head (Thermo Scientific). DMSO (1 ul) was added to Columns 11, 12, 23, 24, rows A-H for the maximum signal control and 1 ul of SAH, a known product and inhibitor of PRMT6, was added to columns 11, 12, 23, 24, rows I-P for the minimum signal control. A cocktail (40 ul) containing the PRMT6 enzyme was added by Multidrop Combi (Thermo-Fisher). The compounds were allowed to incubate with PRMT6 for 30 min at room temperature, then a cocktail (10 ul) containing SAM and peptide was added to initiate the reaction (final volume=51 ul). The final concentrations of the components were as follows: PRMT6 was 1 nM, ^3H-SAM was 200 nM, non-radiolabeled SAM was 250 nM, peptide was 75 nM, SAH in the minimum signal control wells was 1 mM, and the DMSO concentration was 2%. The assays were stopped by the addition of non-radiolabeled SAM (10 ul) to a final concentration of 400 uM, which dilutes the ^3H-SAM to a level where its incorporation into the peptide substrate is no longer detectable. 50 ul of the reaction in the 384-well polypropylene plate was then transferred to a 384-well Flashplate and the biotinylated peptides were allowed to bind to the streptavidin surface for at least 1 hour before being washed once with 0.1% Tween20 in a Biotek ELx405 plate washer. The plates were then read in a PerkinElmer TopCount plate reader to measure the quantity of ^3H-labeled peptide bound to the Flashplate surface, measured as disintegrations per minute (dpm) or alternatively, referred to as counts per minute (cpm). […]

[2] = tested on: mono-methyl arginine in RKO cells; assay: RKO Methylation Assay, In Cell Western (ICW) for detection of mono-methyl arginine and DNA content; assay type: cell-based; settings: Homo sapiens, RKO, 72 h, RKO cells, read-out: In Cell Western EC30
From the text: RKO adherent cells were purchased from ATCC (American Type Culture Collection), Manassas, Va., USA. DMEM/Glutamax medium, penicillin-streptomycin, heat inactivated fetal bovine serum, 0.05% trypsin and D-PBS were purchased from Life Technologies, Grand Island, N.Y., USA. Odyssey blocking buffer, 800 CW goat anti-rabbit IgG (H+L) antibody, and Licor Odyssey infrared scanner were purchased from Licor Biosciences, Lincoln, Nebr., USA. Mono-methyl arginine antibody was purchased from Cell Signaling Technology, Danvers, Mass., USA. Methanol was purchased from VWR, Franklin, Mass., USA. 10% Tween 20 was purchased from KPL, Inc., Gaithersburg, Md., USA. DRAQ5 was purchased from Biostatus Limited, Leicestershire, UK.
RKO adherent cells were maintained in growth medium (DMEM/Glutamax medium supplemented with 10% v/v heat inactivated fetal bovine serum and 100 units/mL penicillin-streptomycin) and cultured at 37° C. under 5% CO2.
Cell treatment, In Cell Western (ICW) for detection of mono-methyl arginine and DNA content. […] Compound (100 nL) from a 96-well source plate was added directly to 384 well cell plate. Plates were incubated at 37° C., 5% CO2 for 72 hours. After three days of incubation, plates were brought to room temperature outside of the incubator for ten minutes and blotted on paper towels to remove cell media. 50 μL of ice cold 100% methanol was added directly to each well and incubated for 30 min at room temperature. After 30 min, plates were transferred to a Biotek EL406 plate washer and washed 2 times with 100 μL per well of wash buffer (1×PBS). Next 60 μL per well of Odyssey blocking buffer (Odyssey Buffer with 0.1% Tween 20 (v/v)) were added to each plate and incubated 1 hour at room temperature. Blocking buffer was removed and 20 μL per well of primary antibody was added (mono-methyl arginine diluted 1:200 in Odyssey buffer with 0.1% Tween 20 (v/v)) and plates were incubated overnight (16 hours) at 4° C. Plates were washed 5 times with 100 μL per well of wash buffer. […] The plates were washed 5 times with 100 μL per well wash buffer then 2 times with 100 μL per well of water. Plates were allowed to dry at room temperature then imaged on the Licor Odyssey machine which measures integrated intensity at 700 nm and 800 nm wavelengths. Both 700 and 800 channels were scanned.
Calculations: First, the ratio for each well was determined by:
Each plate included fourteen control wells of DMSO only treatment (minimum activation) as well as fourteen control wells for maximum activation treated with 20 μM of a reference compound. The average of the ratio values for each control type was calculated and used to determine the percent activation for each test well in the plate. Reference compound was serially diluted three-fold in DMSO for a total of nine test concentrations, beginning at 20 μM. Percent activation was determined and EC30 curves were generated using triplicate wells per concentration of compound.

[3] = read-out: Biochemical IC50 PRMT6
[4] = single experiment or average of multiple experiments, read-out: Biochemical IC50 PRMT6
[5] = 72 hours compound incubation, mono-methyl arginine signal normalised to DNA content (DRAQ5), percent activation vs 20 μM reference compound
[6] = 72 hours incubation, mono-methyl arginine signal normalised to DNA content, single experiment or average of multiple experiments

full-length human PRMT6 (Flag- and His-tagged), sequence (Q96LA8 with tags, fused parts or gaps): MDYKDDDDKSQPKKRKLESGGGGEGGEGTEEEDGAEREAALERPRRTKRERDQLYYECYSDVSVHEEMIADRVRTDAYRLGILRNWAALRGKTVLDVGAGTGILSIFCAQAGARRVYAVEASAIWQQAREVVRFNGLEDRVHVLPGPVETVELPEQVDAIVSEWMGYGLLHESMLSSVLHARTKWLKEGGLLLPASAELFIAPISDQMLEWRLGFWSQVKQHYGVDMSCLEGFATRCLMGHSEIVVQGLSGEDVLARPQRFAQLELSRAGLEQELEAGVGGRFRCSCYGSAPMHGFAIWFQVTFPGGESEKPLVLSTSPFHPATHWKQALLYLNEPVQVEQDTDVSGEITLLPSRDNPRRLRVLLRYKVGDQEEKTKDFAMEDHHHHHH

SMILES | IC50 [1, 3] [nM] | IC50 [1, 4] [nM] | EC30 [2, 5] [nM] | EC30 [2, 6] [nM] | IC50 ([1]; Biochemical IC50 PRMT6) [nM] | IC50 ([1]; Biochemical IC50 PRMT6, single experiment or average of multiple experiments) [nM]
CNCCN(C)Cc1c[nH]nc1[C@H]1CC[C@H](O)C2(CCCCC2)C1 (racemic) [Compound 184, (1S,4S)-4-[4-({methyl[2-(methylamino)ethyl]amino}methyl)-1H-pyrazol-3-yl] spiro[5.5]undecan-1-ol] | 101 to 1000 | 101 | < 3000 | 458 |  | 
CNCCN(C)Cc1c[nH]nc1[C@H]1CC[C@@H](O)C2(CCCCC2)C1 (single isomer, unassigned) [Compound 183] | < 100 | 87.7 | < 3000 | 319 |  | 
CN(CCN)Cc1c[nH]nc1CCc1ccccc1 [Compound 9] | < 100 | 10 | 3010 to 12000 | 5610 |  | 
CNCCN(C)Cc1c[nH]nc1[C@H]1CC[C@]2(CCC(C)(C)O2)CC1 [Compound 104] | < 100 | 40.5 | < 3000 | 11.7 |  | 
CNCCN(C)Cc1c[nH]nc1[C@H]1CC[C@@]2(CCOC2(C)C)CC1 [Compound 106, Methyl [2-(methylamino)ethyl]([3-[(5R,8R)-1,1-dimethyl-2-oxaspiro[4.5]decan-8-yl]-1H-pyrazol-4-yl]methyl)amine] | < 100 | 13.5 | < 3000 | 22.7 |  | 
CNCCN(C)Cc1c[nH]nc1[C@H]1CC[C@@H](N(CC2CCOCC2)C(=O)CC(C)C)CC1 [Compound 107] | 101 to 1000 | 130 |  |  |  | 
CCC(=O)N(CC1CCOCC1)[C@H]1CC[C@@H](c2n[nH]cc2CN(C)CCNC)CC1 [Compound 108] | 101 to 1000 | 326 | 3010 to 12000 | 8550 |  | 
CCC(=O)N(CC1CCOCC1)[C@H]1CC[C@H](c2n[nH]cc2CN(C)CCNC)CC1 [Compound 109] | 101 to 1000 | 124 | < 3000 | 2480 |  | 
CNCCN(C)Cc1c[nH]nc1C1CCC(=O)N(CCc2ccccc2)C1 (stereo not drawn) [Compound 110] | < 100 | 29.4 | < 3000 | 2550 |  | 
CNCCN(C)Cc1c[nH]nc1[C@H]1CC[C@]2(CCN(Cc3ccc(OCCOC)cc3)C2=O)CC1 [Compound 111] | < 100 | 45.5 | < 3000 | 913 |  | 
CNCCN(C)Cc1c[nH]nc1C1CCCC(COCCOC)C1 (stereo not drawn) [Compound 112] | < 100 | 57.4 |  |  |  | 
CNCCN(C)Cc1c[nH]nc1C1CCCC(COCCC(O)CO)C1 (stereo not drawn) [Compound 113] | < 100 | 66.9 | 3010 to 12000 | 7350 |  | 
CNCCN(C)Cc1c[nH]nc1C1CCC(N(CC(C)C)C(=O)CC2CCOCC2)CC1 (stereo not drawn) [Compound 114] | < 100 | 92.6 |  |  |  | 
CNCCN(C)Cc1c[nH]nc1C1CCC(=O)N(Cc2ccccc2)C1 (stereo not drawn) [Compound 115] | < 100 | 62.7 | < 3000 | 18.9 |  | 
CNCCN(C)Cc1c[nH]nc1[C@H]1CC[C@H](OCCOc2ccc(OCCOC)cc2)CC1 [Compound 116] |  |  | 3010 to 12000 | 8900 | < 100 | 18.7
CNCCN(C)Cc1c[nH]nc1C1CCC(=O)N(CCC(C)C)C1 (stereo not drawn) [Compound 117] | < 100 | 96.2 |  |  |  | 
CNCCN(C)Cc1c[nH]nc1C1CC(OC(C)C)CC(OC(C)C)C1 (stereo not drawn) [Compound 118] | > 10000 | > 10000 | 3010 to 12000 | 9570 |  | 
CNCCN(C)Cc1c[nH]nc1C1CCC2(CC1)OC(C)CC(C)O2 (stereo not drawn) [Compound 121] | < 100 | 97.7 |  |  |  | 
CNCCN(C)Cc1c[nH]nc1C1CCC2(CC1)CCC(F)(F)CC2 [Compound 130] | < 100 | 4.2 |  |  |  | 
CCCOC1CC(OCCC)CC(c2n[nH]cc2CN(C)CCNC)C1 (stereo not drawn) [Compound 131] | > 10000 | > 10000 |  |  |  | 
CNCCN(C)Cc1c[nH]nc1C1CC(COC)CC(COC)C1 (stereo not drawn) [Compound 138] | 1010 to 3000 | 1210 |  |  |  | 
CNCCN(C)Cc1c[nH]nc1C1CCC2(CC1)NC(=O)N(C)C2=O (stereo not drawn) [Compound 170] | < 100 | 57.8 |  |  |  | 
CNCCN(C)Cc1c[nH]nc1[C@H]1CC[C@H](OCCOc2ccc(OC)cc2)CC1 [Compound 186] | 101 to 1000 | 107 |  |  |  | 
